Measurements taken from patent US12403137B2, “Compounds and methods of use” (Tango Therapeutics, Inc., priority 2019, dated 2025).

How the values were obtained:
PRMT5 [1] = biological target: T1, PRMT5 (Homo sapiens, UniProt O14744); assay: PRMT5 inhibition assay with SAM as cofactor; format: biochemical; settings: against PRMT5 in the presence of SAM as cofactor
T1 construct: purchased Viva (custom protein)
Source text: (§1) The Ki values can be calculated from the IC50 values as described in the Examples section. As detailed in the Examples section, for the assay performed in the presence of SAM, IC50=Ki×1.5 (Ki=IC50/1.5). For the assay performed in the presence of MTA, IC50=Ki×13.5 (Ki=IC50/13.5). Column 6 indicates the ratio between the Ki of compounds in the presence of SAM and the Ki of compounds in the presence of MTA

PRMT5 [2] = biological target: T1, PRMT5; assay: PRMT5 inhibition assay with no cofactor; format: biochemical; settings: against PRMT5 with no cofactor; read-out: No Co-factor IC50
PRMT5 [3] = biological target: T1, PRMT5; assay: PRMT5 inhibition assay with MTA as cofactor; format: biochemical; settings: for IC50: against PRMT5 with MTA as cofactor; for SAM/MTA Ratio: ratio of Ki in the presence of SAM to Ki in the presence of MTA, Ki=IC50/1.5 (SAM), Ki=IC50/13.5 (MTA)
Source text: as §1

[4] = test system: HAP1 MTAP-intact cell line; assay: SDMA in-cell western assay, HAP1 MTAP-intact; format: cell-based; settings: Homo sapiens
Method in brief: (§2)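 IC50 values come from an SDMA in-cell western run in isogenic HAP1 cells, either MTAP-null or expressing endogenous MTAP. The intact-to-deleted IC50 ratio is used to score MTAP selectivity.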

[5] = test system: HAP1 MTAP-deleted cell line; assay: SDMA in-cell western assay, HAP1 MTAP-deleted; format: cell-based; settings: for IC50: Homo sapiens, HAP1 MTAP-deleted (MTAP-null) cell line; for MTAP Intact/Deleted Ratio: IC50 ratio HAP1 MTAP-intact / HAP1 MTAP-deleted, >=3 fold considered MTAP-selective
Method in brief: as §2

T1 sequence (O14744 whole entry): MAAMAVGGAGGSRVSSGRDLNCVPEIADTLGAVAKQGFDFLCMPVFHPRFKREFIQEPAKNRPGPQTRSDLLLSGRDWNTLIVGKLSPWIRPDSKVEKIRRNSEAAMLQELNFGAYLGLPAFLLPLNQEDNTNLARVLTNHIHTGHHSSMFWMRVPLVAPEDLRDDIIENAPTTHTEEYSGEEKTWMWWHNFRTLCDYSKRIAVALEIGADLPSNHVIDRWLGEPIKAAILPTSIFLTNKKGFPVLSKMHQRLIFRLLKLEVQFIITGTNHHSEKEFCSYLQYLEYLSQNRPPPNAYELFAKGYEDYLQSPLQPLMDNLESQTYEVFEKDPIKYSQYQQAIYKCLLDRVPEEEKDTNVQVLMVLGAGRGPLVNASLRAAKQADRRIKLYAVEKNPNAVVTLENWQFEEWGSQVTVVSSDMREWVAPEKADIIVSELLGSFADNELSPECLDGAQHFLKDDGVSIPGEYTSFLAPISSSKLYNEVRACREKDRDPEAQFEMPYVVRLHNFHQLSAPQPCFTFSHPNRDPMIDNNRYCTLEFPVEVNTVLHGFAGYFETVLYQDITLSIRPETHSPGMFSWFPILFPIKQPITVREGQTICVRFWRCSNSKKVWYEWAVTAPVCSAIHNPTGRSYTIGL
T1 sequence (Q9BQA1 whole entry partner): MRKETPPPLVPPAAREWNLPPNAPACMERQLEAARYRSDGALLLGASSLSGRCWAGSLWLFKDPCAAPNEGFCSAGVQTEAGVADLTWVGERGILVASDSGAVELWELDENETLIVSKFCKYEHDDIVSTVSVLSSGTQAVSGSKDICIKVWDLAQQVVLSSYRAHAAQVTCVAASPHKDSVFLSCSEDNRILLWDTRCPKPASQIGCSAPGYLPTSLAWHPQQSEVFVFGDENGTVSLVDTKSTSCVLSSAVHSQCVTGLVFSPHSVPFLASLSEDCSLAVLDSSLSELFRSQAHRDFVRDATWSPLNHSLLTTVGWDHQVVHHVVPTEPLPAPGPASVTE

| SMILES | IC50 (PRMT5 [1]) [µM] | IC50 (PRMT5 [2]) [µM] | IC50 (PRMT5 [3]) [µM] | IC50 [4] [µM] | IC50 [5] [µM] | SAM/MTA Ratio (PRMT5 [3]) | MTAP Intact/Deleted Ratio [5] |
| --- | --- | --- | --- | --- | --- | --- | --- |
| Cc1ncoc1COc1ccc2c(c1)CN[C@H]([C@H](O)CNC(=O)c1cc(NC3CC4(CCC4)C3)nc(N3CCN(C(=O)C4CC4)CC3)c1)C2 [Compound 42, 2-[4-(cyclopropanecarbonyl)piperazin-1-yl]-N-[(2R)-2-hydroxy-2-[(3S)-7-[(4-methyloxazol-5-yl)methoxy]-1,2,3,4-tetrahydroisoquinolin-3-yl]ethyl]-6-(spiro[3.3]heptan-2-ylamino)pyridine-4-carboxamide] | 0.05 to 0.5 | 0.05 to 0.5 | 0.05 to 0.5 | < 1 | < 1 | A (a Ki ratio greater than or equal to 10 fold between the Ki in the presence of SAM and the Ki in the presence of MTA) | A* (an IC50 ratio greater than or equal to 10 fold between the IC50 in the HAP1 MTAP-intact cell line and the HAP1 MTAP-deleted cell line) |
| Cc1ncoc1COc1ccc2c(c1)CN[C@H]([C@H](O)CNC(=O)c1cc(NC3CC4(CCC4)C3)ncn1)C2 [Compound 43, N-[(2R)-2-hydroxy-2-[(3S)-7-[(4-methyloxazol-5-yl)methoxy]-1,2,3,4-tetrahydroisoquinolin-3-yl]ethyl]-6-(spiro[3.3]heptan-2-ylamino)pyrimidine-4-carboxamide] | 0.05 to 0.5 | 0.05 to 0.5 | < 0.05 | 1 to 10 | < 1 | A (a Ki ratio greater than or equal to 10 fold between the Ki in the presence of SAM and the Ki in the presence of MTA) | A* (an IC50 ratio greater than or equal to 10 fold between the IC50 in the HAP1 MTAP-intact cell line and the HAP1 MTAP-deleted cell line) |
| CC(=O)N1CCC(Nc2cc(C(=O)NC[C@@H](O)[C@@H]3Cc4ccc(OCc5ocnc5C)cc4CN3)ccn2)CC1 [Compound 44, 2-[(1-acetyl-4-piperidyl)amino]-N-[(2R)-2-hydroxy-2-[(3S)-7-[(4-methyloxazol-5-yl)methoxy]-1,2,3,4-tetrahydroisoquinolin-3-yl]ethyl]pyridine-4-carboxamide] | 0.05 to 0.5 | 0.05 to 0.5 | < 0.05 | ≥ 10 | 1 to 10 | A (a Ki ratio greater than or equal to 10 fold between the Ki in the presence of SAM and the Ki in the presence of MTA) | B* (an IC50 ratio greater than or equal to 3 fold but lower than 10 fold between the IC50 in the HAP1 MTAP-intact cell line and the HAP1 MTAP-deleted cell line) |
| Cc1ncoc1COc1ccc2c(c1)CN[C@H]([C@H](O)CNC(=O)c1ccnc(NC3CC4(CCC4)C3)c1)C2 [Compound 46, N-[(2R)-2-hydroxy-2-[(3S)-7-[(4-methyloxazol-5-yl)methoxy]-1,2,3,4-tetrahydroisoquinolin-3-yl]ethyl]-2-(spiro[3.3]heptan-2-ylamino)pyridine-4-carboxamide] | 0.05 to 0.5 | 0.05 to 0.5 | < 0.05 | < 1 | < 1 | A (a Ki ratio greater than or equal to 10 fold between the Ki in the presence of SAM and the Ki in the presence of MTA) | B* (an IC50 ratio greater than or equal to 3 fold but lower than 10 fold between the IC50 in the HAP1 MTAP-intact cell line and the HAP1 MTAP-deleted cell line) |

More lines, main results first:

| IC50 (PRMT5 [1]) [µM] | IC50 (PRMT5 [2]) [µM] | IC50 (PRMT5 [3]) [µM] | IC50 [4] [µM] | IC50 [5] [µM] | SMILES | SAM/MTA Ratio (PRMT5 [3]) | MTAP Intact/Deleted Ratio [5] |
| --- | --- | --- | --- | --- | --- | --- | --- |
| 0.05 to 0.5 | 0.05 to 0.5 | < 0.05 | 1 to 10 | < 1 | CCC(=O)N1CCN(c2cc(C(=O)NC[C@@H](O)[C@@H]3Cc4ccc(OCc5ocnc5C)cc4CN3)cc(NC3CCC3)n2)CC1 [Compound 39, 2-(cyclobutylamino)-N—((R)-2-hydroxy-2-((S)-7-((4-methyloxazol-5-yl)methoxy)-1,2,3,4-tetrahydroisoquinolin-3-yl)ethyl)-6-(4-propionylpiperazin-1-yl)isonicotinamide] | A (a Ki ratio greater than or equal to 10 fold between the Ki in the presence of SAM and the Ki in the presence of MTA) | A* (an IC50 ratio greater than or equal to 10 fold between the IC50 in the HAP1 MTAP-intact cell line and the HAP1 MTAP-deleted cell line) |
| 0.05 to 0.5 | 0.05 to 0.5 | < 0.05 | 1 to 10 | < 1 | CC(=O)N1CCC(Nc2cc(C(=O)NC[C@@H](O)[C@@H]3Cc4ccc(OCc5ocnc5C)cc4CN3)cc(N3CCCCC3)n2)CC1 [Compound 40, 2-[(1-acetyl-4-piperidyl)amino]-N-[(2R)-2-hydroxy-2-[(3S)-7-[(4-methyloxazol-5-yl)methoxy]-1,2,3,4-tetrahydroisoquinolin-3-yl]ethyl]-6-(1-piperidyl)pyridine-4-carboxamide] | A (a Ki ratio greater than or equal to 10 fold between the Ki in the presence of SAM and the Ki in the presence of MTA) | A* (an IC50 ratio greater than or equal to 10 fold between the IC50 in the HAP1 MTAP-intact cell line and the HAP1 MTAP-deleted cell line) |
| 0.05 to 0.5 | 0.5 to 5 | < 0.05 | ≥ 10 | 1 to 10 | CC(=O)N1CCC(Nc2cc(C(=O)NC[C@@H](O)[C@@H]3Cc4ccc(OCc5ocnc5C)cc4CN3)ncn2)CC1 [Compound 41, 6-[(1-acetyl-4-piperidyl)amino]-N-[(2R)-2-hydroxy-2-[(3S)-7-[(4-methyloxazol-5-yl)methoxy]-1,2,3,4-tetrahydroisoquinolin-3-yl]ethyl]pyrimidine-4-carboxamide] | A (a Ki ratio greater than or equal to 10 fold between the Ki in the presence of SAM and the Ki in the presence of MTA) | B* (an IC50 ratio greater than or equal to 3 fold but lower than 10 fold between the IC50 in the HAP1 MTAP-intact cell line and the HAP1 MTAP-deleted cell line) |
| 0.05 to 0.5 | 0.05 to 0.5 | < 0.05 | ≥ 10 | < 1 | CC(=O)N1CC(Nc2cc(C(=O)NC[C@@H](O)[C@@H]3Cc4ccc(OCc5ocnc5C)cc4CN3)cc(N3CCCCC3)n2)C1 [Compound 45, 2-[(1-acetylazetidin-3-yl)amino]-N-[(2R)-2-hydroxy-2-[(3S)-7-[(4-methyloxazol-5-yl)methoxy]-1,2,3,4-tetrahydroisoquinolin-3-yl]ethyl]-6-(1-piperidyl)pyridine-4-carboxamide] | A (a Ki ratio greater than or equal to 10 fold between the Ki in the presence of SAM and the Ki in the presence of MTA) | A* (an IC50 ratio greater than or equal to 10 fold between the IC50 in the HAP1 MTAP-intact cell line and the HAP1 MTAP-deleted cell line) |
| 0.05 to 0.5 | 0.05 to 0.5 | < 0.05 | ≥ 10 | 1 to 10 | CC(=O)N1CC(Nc2cc(C(=O)NC[C@@H](O)[C@@H]3Cc4ccc(OCc5ocnc5C)cc4CN3)nc(N3CCN(C(C)C)CC3)n2)C1 [Compound 47, 6-[(1-acetylazetidin-3-yl)amino]-N-[(2R)-2-hydroxy-2-[(3S)-7-[(4-methyloxazol-5-yl)methoxy]-1,2,3,4-tetrahydroisoquinolin-3-yl]ethyl]-2-(4-isopropylpiperazin-1-yl)pyrimidine-4-carboxamide] | A (a Ki ratio greater than or equal to 10 fold between the Ki in the presence of SAM and the Ki in the presence of MTA) | C* (an IC50 ratio of less than 3 fold between the IC50 in the HAP1 MTAP-intact cell line and the HAP1 MTAP-deleted cell line) |
